# Measured values reported in ChEMBL document CHEMBL1153362, “Discovery of 6-({4-[2-(4-tert-butylphenyl)-1H-benzimidazol-4-yl]piperazin-1-yl}methyl)quinoxaline (WAY-207024): an orally active antagonist of the gonadotropin releasing hormone receptor (GnRH-R)” (J Med Chem, 2009).
# Activity calls are given as the source filed them. The rule behind the calls is not given here.
# What was measured:
# [1] = biological target: T1, Gonadotropin-releasing hormone receptor (Rattus norvegicus, UniProt P30969); test: Antagonist activity at rat recombinant GnRH receptor assessed as inhibition of [D-Trp6]-GnRH-stimulated LH release from rat pituitary cells; type: functional, cell-based, Pituitary gland cell
# T1 sequence (P30969 whole entry): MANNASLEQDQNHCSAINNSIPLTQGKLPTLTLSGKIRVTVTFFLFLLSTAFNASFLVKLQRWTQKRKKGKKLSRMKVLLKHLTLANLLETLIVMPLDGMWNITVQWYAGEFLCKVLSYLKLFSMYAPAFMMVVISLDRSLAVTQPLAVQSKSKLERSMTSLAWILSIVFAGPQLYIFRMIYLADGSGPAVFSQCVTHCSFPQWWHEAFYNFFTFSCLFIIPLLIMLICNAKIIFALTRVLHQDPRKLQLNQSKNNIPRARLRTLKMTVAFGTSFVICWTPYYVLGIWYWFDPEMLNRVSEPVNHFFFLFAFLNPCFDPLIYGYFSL
# [2] = Aqueous solubility at pH 7.4; type: physicochemical
# [3] = biological target: T2, Gonadotropin-releasing hormone receptor (Homo sapiens, UniProt P30968); test: Displacement of [D-Trp6]-GnRH from human recombinant GnRH receptor
# T2 sequence (P30968 whole entry): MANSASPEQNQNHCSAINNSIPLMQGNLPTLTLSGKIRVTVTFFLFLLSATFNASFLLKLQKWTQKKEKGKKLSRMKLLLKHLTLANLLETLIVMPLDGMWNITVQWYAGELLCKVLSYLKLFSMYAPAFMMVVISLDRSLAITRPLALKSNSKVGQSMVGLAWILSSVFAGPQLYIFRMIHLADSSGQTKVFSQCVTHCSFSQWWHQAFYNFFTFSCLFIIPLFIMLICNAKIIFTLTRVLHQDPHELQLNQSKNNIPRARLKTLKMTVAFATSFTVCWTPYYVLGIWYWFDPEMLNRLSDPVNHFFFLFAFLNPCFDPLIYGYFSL
# [4] = biological target: T1, Gonadotropin-releasing hormone receptor; test: Displacement of [D-Trp6]-GnRH from rat recombinant GnRH receptor
# [5] = Metabolic stability in rat liver microsomes assessed as half life; type: ADME, Microsome
# [6] = Permeability across artificial membrane; type: ADME; conditions: PAMPA; read-out: permeability
# [7] = biological target: T2, Gonadotropin-releasing hormone receptor; test: Antagonist activity at human GnRH receptor assessed as inhibition of [D-Trp6]-GnRH-stimulated [3H]IP […]; type: functional
# [8] = AUC (0 to infinity) in castrated rat at 1 mg/kg, iv; type: ADME, organism-based; parameters: time infinity, dose 1 mg/kg, route intravenous; conditions: male, plasma
# [9] = biological target: Opioid receptors; mu/kappa/delta (Homo sapiens, UniProt P41145+P41143+P35372); test: Inhibition of human non-selective opioid receptor
# [10] = Half life in castrated rat at 20 mg/kg, po; type: ADME, organism-based; parameters: dose 20 mg/kg, route oral; conditions: male, in vivo
# [11] = Cmax in castrated rat at 20 mg/kg, po; type: ADME, organism-based; parameters: dose 20 mg/kg, route oral; conditions: male, in vivo
# [12] = Half life in castrated rat at 1 mg/kg, iv; type: ADME, organism-based; parameters: dose 1 mg/kg, route intravenous; conditions: male, in vivo
# [13] = Clearance in castrated rat plasma at 1 mg/kg, iv; type: ADME, organism-based; parameters: dose 1 mg/kg, route intravenous; conditions: male
# [14] = biological target: Voltage-gated inwardly rectifying potassium channel KCNH2 (Homo sapiens, UniProt Q12809); test: Inhibition of human ERG potassium channel at 2 uM
# Histamine H2 receptor = Histamine H2 receptor (Homo sapiens, UniProt P25021); test: Inhibition of human histamine H2 receptor
# Rattus norvegicus [15] = test: Reduction of serum LH level in castrated rat at 30 mg/kg, po after 1 hr; type: functional, organism-based; parameters: dose 30 mg/kg
# Substance-K receptor = biological target: T3, Substance-K receptor (Homo sapiens, UniProt P21452); test: Inhibition of human neurokinin NK2 receptor
# T3 sequence (P21452 whole entry): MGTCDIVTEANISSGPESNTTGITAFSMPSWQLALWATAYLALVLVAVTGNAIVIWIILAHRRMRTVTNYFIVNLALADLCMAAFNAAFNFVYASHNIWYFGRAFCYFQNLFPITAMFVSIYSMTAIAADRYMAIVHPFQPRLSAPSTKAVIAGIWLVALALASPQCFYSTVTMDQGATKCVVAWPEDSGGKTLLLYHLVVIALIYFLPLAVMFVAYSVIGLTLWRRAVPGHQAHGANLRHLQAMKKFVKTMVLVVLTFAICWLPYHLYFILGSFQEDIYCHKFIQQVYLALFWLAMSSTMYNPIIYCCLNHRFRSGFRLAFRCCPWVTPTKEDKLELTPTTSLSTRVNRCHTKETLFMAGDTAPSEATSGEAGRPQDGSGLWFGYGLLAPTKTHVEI
# [16] = Oral bioavailability in castrated rat at 20 mg/kg; type: ADME, organism-based; conditions: male, in vivo
# [17] = Volume of distribution at steady state in castrated rat at 1 mg/kg, iv; type: ADME, organism-based; parameters: dose 1 mg/kg, route intravenous; conditions: male, in vivo, read-out: Vdss
# [18] = Tmax in castrated rat at 20 mg/kg, po; type: ADME, organism-based; parameters: dose 20 mg/kg, route oral; conditions: male, in vivo
# Rattus norvegicus [19] = test: Reduction of serum LH level in castrated rat at 30 mg/kg, po after 6 hr; type: functional, organism-based; parameters: dose 30 mg/kg
# [20] = AUC (0 to infinity) in castrated rat at 20 mg/kg, po; type: ADME, organism-based; parameters: time infinity, dose 20 mg/kg, route oral; conditions: male, plasma
# Sequence of Histamine H2 receptor (P25021 whole entry): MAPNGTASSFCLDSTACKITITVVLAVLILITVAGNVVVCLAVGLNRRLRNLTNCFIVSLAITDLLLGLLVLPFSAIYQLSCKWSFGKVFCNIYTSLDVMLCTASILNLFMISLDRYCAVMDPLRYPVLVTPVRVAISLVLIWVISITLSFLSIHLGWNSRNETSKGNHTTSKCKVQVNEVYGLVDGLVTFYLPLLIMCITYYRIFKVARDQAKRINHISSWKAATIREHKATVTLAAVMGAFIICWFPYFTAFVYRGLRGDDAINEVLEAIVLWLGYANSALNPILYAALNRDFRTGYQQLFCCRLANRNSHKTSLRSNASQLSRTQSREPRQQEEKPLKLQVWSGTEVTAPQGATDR
# Sequence of Voltage-gated inwardly rectifying potassium channel KCNH2 (Q12809 whole entry): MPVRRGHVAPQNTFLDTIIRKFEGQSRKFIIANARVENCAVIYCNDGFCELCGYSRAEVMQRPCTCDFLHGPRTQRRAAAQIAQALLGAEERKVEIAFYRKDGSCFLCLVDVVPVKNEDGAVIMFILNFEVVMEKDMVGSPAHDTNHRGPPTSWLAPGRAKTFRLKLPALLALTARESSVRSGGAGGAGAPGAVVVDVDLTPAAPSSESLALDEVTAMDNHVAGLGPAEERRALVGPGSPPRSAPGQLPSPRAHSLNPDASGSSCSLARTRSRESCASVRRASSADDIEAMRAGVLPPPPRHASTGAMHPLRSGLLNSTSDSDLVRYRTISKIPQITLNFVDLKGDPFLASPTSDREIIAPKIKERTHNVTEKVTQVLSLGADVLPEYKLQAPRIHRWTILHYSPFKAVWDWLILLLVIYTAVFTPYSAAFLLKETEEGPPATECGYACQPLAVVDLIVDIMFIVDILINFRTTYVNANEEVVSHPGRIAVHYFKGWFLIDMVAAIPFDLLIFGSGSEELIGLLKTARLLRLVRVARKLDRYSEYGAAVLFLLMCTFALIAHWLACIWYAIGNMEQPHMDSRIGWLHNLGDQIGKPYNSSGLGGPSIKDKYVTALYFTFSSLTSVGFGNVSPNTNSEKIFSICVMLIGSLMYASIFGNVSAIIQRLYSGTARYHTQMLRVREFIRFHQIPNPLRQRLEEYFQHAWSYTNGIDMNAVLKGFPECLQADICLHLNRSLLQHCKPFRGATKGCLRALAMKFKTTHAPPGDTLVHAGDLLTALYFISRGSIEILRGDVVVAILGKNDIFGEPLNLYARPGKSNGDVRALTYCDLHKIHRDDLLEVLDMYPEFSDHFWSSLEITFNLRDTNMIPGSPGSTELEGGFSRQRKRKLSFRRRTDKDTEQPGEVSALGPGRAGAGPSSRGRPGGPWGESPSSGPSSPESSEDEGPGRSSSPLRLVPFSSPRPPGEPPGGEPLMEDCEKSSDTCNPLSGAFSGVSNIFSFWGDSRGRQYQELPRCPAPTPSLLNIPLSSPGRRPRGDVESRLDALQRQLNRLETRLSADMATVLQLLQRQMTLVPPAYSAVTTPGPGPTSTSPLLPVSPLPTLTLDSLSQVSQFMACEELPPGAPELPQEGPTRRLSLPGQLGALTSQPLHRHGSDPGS
IC50 [1] [nM],solubility [2] [µg/mL],IC50 [3] [nM],IC50 [4] [nM],half-life [5] [min],Papp [6] [×10⁻⁶ cm/s],IC50 [7] [nM],SMILES,further results
69,< 1,5.6,47,10,0.05,14,CC(C)(C)c1ccc(-c2nc3c(N4CCN(Cc5ccc6[nH]c(=O)c(=O)n(Cc7cccnc7)c6c5)CC4)cccc3[nH]2)cc1,
540,4,24,,,1.5,140,CC(C)(C)c1ccc(-c2nc3c(N4CCN(Cc5ccc6cccnc6c5)CC4)cccc3[nH]2)cc1,
350,,12,71,16,0.23,28,CC(C)(C)c1ccc(-c2nc3c(N4CCN(Cc5ccc6nccnc6c5)CC4)cccc3[nH]2)cc1,AUC(0-inf) [8]: 447 ng·h/mL; Ki [9]: 550 nM; half-life [10]: 222 min; Cmax [11]: 1330 ng/mL; half-life [12]: 162 min; clearance [13]: 38 mL/min/kg; Activity [14]: Not Active; Ki (Histamine H2 receptor): 850 nM; Activity (Rattus norvegicus [15]): Active; Ki (Substance-K receptor): 330 nM; bioavailability [16]: 74%; Vd [17]: 6.1 L/kg; Tmax [18]: 120 min; Activity (Rattus norvegicus [19]): Active; AUC(0-inf) [20]: 6640 ng·h/mL
120,1,16,87,3,0.05,16,CC(C)(C)c1ccc(-c2nc3c(N4CCN(Cc5ccc6c(c5)NCC(=O)N6)CC4)cccc3[nH]2)cc1,
5900,,26,,,,400,CC(C)(C)c1ccc(-c2nc3c(N4CCN(Cc5cccc6nccnc56)CC4)cccc3[nH]2)cc1,
,< 1,,,14,< 0.1,,CC(C)(C)c1ccc(-c2nc3c(N4CCN(Cc5ccc6[nH]c(=O)c(=O)[nH]c6c5)CC4)cccc3[nH]2)cc1,
44,< 1,3.5,17,,,7.4,Cn1c(=O)c(=O)[nH]c2ccc(CN3CCN(c4cccc5[nH]c(-c6ccc(C(C)(C)C)cc6)nc45)CC3)cc21,
240,4,1.8,33,30,< 0.1,9.7,CC(C)(C)c1ccc(-c2nc3c(N4CCN(Cc5cnc6[nH]c(=O)c(=O)[nH]c6c5)CC4)cccc3[nH]2)cc1,
830,2,21,,,0.4,64,CC(C)(C)c1ccc(-c2nc3c(N4CCN(Cc5ccc6ncccc6c5)CC4)cccc3[nH]2)cc1,
